Measurements as given in patent publication US20250122225A1, “MASP-2 INHIBITORS AND METHODS OF USE” (Omeros Corporation, priority 2023, published 2025).
Where a name gives a salt, the structure may show the parent alone.

Experiments:
Type in all cases: biochemical
[1] = molecular target: T1, human α-thrombin (Homo sapiens, UniProt P00734); assay: Enzymatic assay for thrombin (fluorogenic peptide substrate Boc-VPR-AMC)
T1 construct: enzyme (human α-thrombin (BioPharm® Lab.)) in assay buffer; purchased BioPharm® Lab
Summary of the method: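 Assay conditions kept the reaction linear in time, enzyme and substrate, so IC50 approximated Ki apart from tight- or slow-binding cases. Boc-VPR-AMC cleavage by human α-thrombin proceeded 20 min at room temperature in Hepes pH 7.4/NaCl/Tween 20 buffer, then was acid-quenched and read by fluorescence.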

[2] = molecular target: T2, MASP-2 (CCP1-CCP2-SP) (Homo sapiens, UniProt O00187); assay: Enzymatic assay for MASP-2 inhibitory activity (fluorogenic substrate)
T2 construct: 15 μL of Enzyme MASP-2 (CCP1-CCP2-SP) in Assay Buffer
Summary of the method: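 Fluorescence was normalized between no-enzyme and DMSO-only controls to derive % activity, with IC50 taken as equivalent to Ki except for tight-binding inhibitors. Reactions ran 20 min at room temperature in HEPES pH 7.4/NaCl/Tween 20 buffer, using the C2-derived fluorogenic substrate, before acetic acid stop.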

[3] = tested on: Lectin Pathway Activation in human serum; assay: Lectin Pathway Activation (LPA) assay in human serum, mannan-coated ELISA plate, C4c detection; conditions: 1% human serum, read-out: LPA Functional Activity (IC50)
Procedure: Lectin Pathway Activation (LPA) Assay in Human Serum Treated with Compounds
A microtiter ELISA plate was coated with mannan (1 mg/ml) from Saccharomyces cerevisiae (Sigma-Aldrich®, M7504) overnight at 4° C. in coating buffer [33.3 mM Na2CO3, 166.67 mM NaHCO3]. The plate was blocked with 5% bovine serum albumin (BSA) (Sigma-Aldrich®, A3294) in 1×PBST [Phosphate Buffered Saline Solution (1.06 mM KH2PO4, 155.2 mM NaCl, 2.97 mM Na2HPO4^−·7H2O, pH 7.4), 0.05% Tween-20] shaking for 2 hours at room temperature. 1% human serum was incubated with serial dilutions of small compounds in 1× LPA+ Buffer [20 mM Hepes, pH 7.4, 140 mM NaCl, 2 mM MgCl2 (6H2O)] and incubated for 5 minutes at room temperature. 40 μL of this mixture was then added to the plate, and the plate was incubated at room temperature for 55 mins. Next, the reaction was stopped by adding 20 μL of EDTA Stop Solution [20 mM Hepes, pH7.4, 140 mM NaCl, 150 mM EDTA] to the plate. The plate was then washed 10× in wash buffer 1×PBST; 40 μL of Rabbit Anti Human C4c Antibody [Dako®, Q0369] diluted 1:20000 in wash buffer was added; and the plate was incubated shaking at room temperature for 30 minutes. The plate was washed [5× times]; 40 μL of Goat Anti-rabbit Antibody-HRP Conjugate [Southern Biotech®, 4050-05] diluted 1:10000 in wash buffer was added; and the plate was incubated shaking at room temperature for 30 minutes. After that, the plate was washed five times; 40 µL/well of Amplex® UltraRed Substrate Solution [1× LPA Buffer, 10 mM Amplex® UltraRed Stock Solution [Thermo Fisher Sci.®, A36006], 3% stabilized hydrogen peroxide [Sigma Aldrich®, 216763] was added; the plate was incubated at room temperature for 16 minutes; the reaction was stopped by adding 8 µL/well of Amplex® UltraRed Stop Solution [Thermo Fisher Sci.®, A33855] in 100% EtOH. Finally, the plate was read for fluorescence at Ex: 550 nm, Em: 580 nm on the i3x Microplate Reader.

T2 sequence (O00187 445-686 limits assumed): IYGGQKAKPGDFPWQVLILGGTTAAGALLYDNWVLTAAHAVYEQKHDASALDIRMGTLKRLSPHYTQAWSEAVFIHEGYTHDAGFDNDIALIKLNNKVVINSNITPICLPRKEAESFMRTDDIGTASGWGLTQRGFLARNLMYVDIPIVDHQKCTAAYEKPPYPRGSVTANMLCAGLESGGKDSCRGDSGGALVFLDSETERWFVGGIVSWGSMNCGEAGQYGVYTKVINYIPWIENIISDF
T2 sequence (O00187 287-444 partner limits assumed): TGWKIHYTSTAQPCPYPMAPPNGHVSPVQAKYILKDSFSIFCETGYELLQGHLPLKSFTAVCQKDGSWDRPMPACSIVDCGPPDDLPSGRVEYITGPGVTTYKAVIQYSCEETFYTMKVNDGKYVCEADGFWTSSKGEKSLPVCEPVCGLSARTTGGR

Row | Compound | Ki [1] [nM] | Ki [2] [nM] | IC50 [3] [nM]
1 | Cc1ccc(CNc2nc(Cl)c3n(c2=O)[C@H](C(=O)NCc2ccc(N)nc2C)CC3)cc1C [Compound 27, (S)-N-((6-amino-2-methylpyridin-3-yl)methyl)-1-chloro-3-((3,4-dimethylbenzyl)amino)-4-oxo-4,6,7,8-tetrahydropyrrolo[1,2-a]pyrazine-6-carboxamide trifluoroacetate] | 2500 to 10000 | < 500 | < 50
2 | Cc1cc(C)cc(CNc2ncc3n(c2=O)[C@H](C(=O)NCc2cc4cnccc4n2C)CC3)c1 [Compound 41, (S)-3-((3,5-dimethylbenzyl)amino)-N-((1-methyl-1H-pyrrolo[3,2-c]pyridin-2-yl)methyl)-4-oxo-4,6,7,8-tetrahydropyrrolo[1,2-a]pyrazine-6-carboxamide trifluoroacetate] | 500 to 2500 | < 500 | < 50
3 | CC[C@@H](Nc1ncc2n(c1=O)[C@H](C(=O)NCc1cc3c(s1)CNC3)CC2)c1cccc(-c2ccccc2)c1 [Compound 267, (S)-3-(((R)-1-([1,1'-biphenyl]-3-yl)propyl)amino)-N-((5,6-dihydro-4H-thieno[2,3-c]pyrrol-2-yl)methyl)-4-oxo-4,6,7,8-tetrahydropyrrolo[1,2-a]pyrazine-6-carboxamide trifluoroacetate] | 500 to 2500 | < 500 | 
4 | CCc1cccc([C@@H](CC)Nc2ncc3n(c2=O)[C@H](C(=O)NCc2cc4c(s2)CNC4)CC3)c1 [Compound 268, (S)-N-((5,6-dihydro-4H-thieno[2,3-c]pyrrol-2-yl)methyl)-3-(((R)-1-(3-ethylphenyl)propyl)amino)-4-oxo-4,6,7,8-tetrahydropyrrolo[1,2-a]pyrazine-6-carboxamide trifluoroacetate] | < 500 | < 500 | 
5 | C[C@@H](NC(=O)[C@@H]1CCc2cnc(N[C@@H](c3ccccc3)C(C)(C)C)c(=O)n21)c1cc2c(s1)CNC2 [Compound 269, (S)-N-((R)-1-(5,6-dihydro-4H-thieno[2,3-c]pyrrol-2-yl)ethyl)-3-(((R)-2,2-dimethyl-1-phenylpropyl)amino)-4-oxo-4,6,7,8-tetrahydropyrrolo[1,2-a]pyrazine-6-carboxamide trifluoroacetate] | 2500 to 10000 | < 500 | 
6 | C[C@H](NC(=O)[C@@H]1CCc2cnc(N[C@@H](c3ccccc3)C(C)(C)C)c(=O)n21)c1cc2c(s1)CNC2 [Compound 270, (S)-N-((S)-1-(5,6-dihydro-4H-thieno[2,3-c]pyrrol-2-yl)ethyl)-3-(((R)-2,2-dimethyl-1-phenylpropyl)amino)-4-oxo-4,6,7,8-tetrahydropyrrolo[1,2-a]pyrazine-6-carboxamide trifluoroacetate] | 10000 to 25000 | 2500 to 10000 | 
7 | O=C(NCc1cc2c(s1)CNC2)[C@@H]1CCc2cnc(NCC3(c4ccccc4)CCC3)c(=O)n21 [Compound 271, (S)-N-((5,6-dihydro-4H-thieno[2,3-c]pyrrol-2-yl)methyl)-4-oxo-3-(((1-phenylcyclobutyl)methyl)amino)-4,6,7,8-tetrahydropyrrolo[1,2-a]pyrazine-6-carboxamide trifluoroacetate] | < 500 | < 500 | 
8 | C[C@@H](NC(=O)[C@@H]1CCc2cnc(N[C@@H](c3ccccc3)C3CC3)c(=O)n21)c1cc2c(s1)CNC2 [Compound 272, (S)-3-(((R)-cyclopropyl(phenyl)methyl)amino)-N-((R)-1-(5,6-dihydro-4H-thieno[2,3-c]pyrrol-2-yl)ethyl)-4-oxo-4,6,7,8-tetrahydropyrrolo[1,2-a]pyrazine-6-carboxamide trifluoroacetate] | 2500 to 10000 | < 500 | 
9 | C[C@H](NC(=O)[C@@H]1CCc2cnc(N[C@@H](c3ccccc3)C3CC3)c(=O)n21)c1cc2c(s1)CNC2 [Compound 273, (S)-3-(((R)-cyclopropyl(phenyl)methyl)amino)-N-((S)-1-(5,6-dihydro-4H-thieno[2,3-c]pyrrol-2-yl)ethyl)-4-oxo-4,6,7,8-tetrahydropyrrolo[1,2-a]pyrazine-6-carboxamide trifluoroacetate] | > 25000 | 2500 to 10000 | 
10 | CC(C)[C@@H](Nc1ncc2n(c1=O)[C@H](C(=O)N[C@H](C)c1cc3c(s1)CNC3)CC2)c1ccccc1 [Compound 274, (S)-N-((R)-1-(5,6-dihydro-4H-thieno[2,3-c]pyrrol-2-yl)ethyl)-3-(((R)-2-methyl-1-phenylpropyl)amino)-4-oxo-4,6,7,8-tetrahydropyrrolo[1,2-a]pyrazine-6-carboxamide trifluoroacetate] | 500 to 2500 | < 500 | 
11 | CC(C)[C@@H](Nc1ncc2n(c1=O)[C@H](C(=O)N[C@@H](C)c1cc3c(s1)CNC3)CC2)c1ccccc1 [Compound 275, (S)-N-((S)-1-(5,6-dihydro-4H-thieno[2,3-c]pyrrol-2-yl)ethyl)-3-(((R)-2-methyl-1-phenylpropyl)amino)-4-oxo-4,6,7,8-tetrahydropyrrolo[1,2-a]pyrazine-6-carboxamide trifluoroacetate] | > 25000 | < 500 | 
12 | CC[C@@H](Nc1ncc2n(c1=O)[C@H](C(=O)N[C@@H](C)c1cc3c(s1)CNC3)CC2)c1ccccc1 [Compound 278] | 10000 to 25000 | < 500 | 
13 | O=C(NCc1cc2c(s1)CNC2)[C@@H]1CCc2cnc(N[C@@H](c3ccccc3)C3CCCC3)c(=O)n21 [Compound 279, (S)-3-(((R)-cyclopentyl(phenyl)methyl)amino)-N-((5,6-dihydro-4H-thieno[2,3-c]pyrrol-2-yl)methyl)-4-oxo-4,6,7,8-tetrahydropyrrolo[1,2-a]pyrazine-6-carboxamide] | < 500 | < 500 | 
14 | CC(C)(C)[C@@H](Nc1ncc2n(c1=O)[C@H](C(=O)NCc1cc3c(s1)CNC3)CC2)c1ccc(F)cc1 [Compound 280, (S)—N-((5,6-dihydro-4H-thieno[2,3-c]pyrrol-2-yl)methyl)-3-(((R)-1-(4-fluorophenyl)-2,2-dimethylpropyl)amino)-4-oxo-4,6,7,8-tetrahydropyrrolo[1,2-a]pyrazine-6-carboxamide] | < 500 | < 500 | 
15 | Cc1cc(C)cc(CNc2ncc3n(c2=O)[C@H](C(=O)NCc2ccc4[nH]ncc4c2)CC3)c1 [Compound 281, (S)—N-((1H-indazol-5-yl)methyl)-3-((3,5-dimethylbenzyl)amino)-4-oxo-4,6,7,8-tetrahydropyrrolo[1,2-a]pyrazine-6-carboxamide] | 500 to 2500 | < 500 | 
16 | Cc1cc(C)cc(CNc2ncc3n(c2=O)[C@H](C(=O)NCc2cccc4[nH]ncc24)CC3)c1 [Compound 282, (S)-N-((1H-indazol-4-yl)methyl)-3-((3,5-dimethylbenzyl)amino)-4-oxo-4,6,7,8-tetrahydropyrrolo[1,2-a]pyrazine-6-carboxamide] | 2500 to 10000 | 500 to 2500 | 
17 | Cc1cc(C)cc(CNc2ncc3n(c2=O)[C@H](C(=O)NCc2cc(Cl)ccc2-n2cnnn2)CC3)c1 [Compound 284, (S)-N-(5-chloro-2-(1H-tetrazol-1-yl)benzyl)-3-((3,5-dimethylbenzyl)amino)-4-oxo-4,6,7,8-tetrahydropyrrolo[1,2-a]pyrazine-6-carboxamide] | < 500 | < 500 | 
18 | O=C(NCc1cc2c(s1)CNC2)[C@@H]1CCc2cnc(NCc3cccc(-c4ccccc4)c3)c(=O)n21 [Compound 285, (S)-3-(([1,1′-biphenyl]-3-ylmethyl)amino)-N-((5,6-dihydro-4H-thieno[2,3-c]pyrrol-2-yl)methyl)-4-oxo-4,6,7,8-tetrahydropyrrolo[1,2-a]pyrazine-6-carboxamide trifluoroacetate] | 500 to 2500 | < 500 | 
19 | Cc1ccccc1CNc1ncc2n(c1=O)[C@H](C(=O)NCc1cc3c(s1)CNC3)CC2 [Compound 286, trifluoroacetate] | 500 to 2500 | < 500 | 
